Legend:
[1] = target: T1, KCNQ2 potassium channel (CHO-KCNQ2 cells) (Homo sapiens, UniProt O43526); assay: Potassium ion channel opener activity test (FDSS/μCELL detection, FluxOR thallium flux); type: cell-based; conditions: for Maximum agonist rate (%): highest test concentration 100 μM
T1 construct: expressed in transfected cells; host or cells: CHO cells stably expressing KCNQ2, kept under G418 selection
Protocol: Potassium Ion Channel Opener Activity Test (FDSS/μCELL Detection)
1.1 Experimental procedure
Cell preparation: CHO-KCNQ2 cells were cultured in a 175 cm^2 culture flask, and when the cell density grew to 60-80%, the culture medium was removed, washed with 7 mL PBS (Phosphate Buffered Saline) once, then 3 mL 0.25% Trypsin was added to digest. After the digestion was completed, 7 mL culture medium (90% DMEM/F12+10% FBS±500 μg/mL G418) was added to neutralize, centrifugated for 3 minutes at 800 rpm. The supernatant was aspirated, then 5 mL culture medium was added to resuspend, and then the cells were counted.
Cell plating: according to the results of cell counting, the density was adjusted to 3×10^4 cells/well. After standing at room temperature for 30 minutes, the plate was placed in a 37° C. CO2 incubator and incubated overnight for 16-18 hours. The cell density reached about 80%.
Fluorescent dye incubation: the cell culture medium was discarded, 80 μL/well loading buffer was added, and incubated in the dark at room temperature for 60 minutes. Compound incubation: the loading buffer was discarded, 80 μL/well prepared compound solution was added, and incubated in the dark at room temperature for 20 minutes.
Fluorescence data collection: FDSS/μCELL instrument was used for real-time fluorescence signal recording with excitation wavelength at 480 nm and emission wavelength at 540 nm, recorded 1 time per second, and 20 μL/well stimulation buffer was started to add after recording for 10 seconds for baseline, and then continued to record until the end of 180 seconds.
The above buffer come from a commercially available kit named FluxOR potassium ion channel assay.
20 mM DMSO compound mother liquor was prepared, 10 μL of 20 mM compound mother liquor was took into 20 μL DMSO solution, serially diluted 3 times to 8 intermediate concentrations; then the intermediate concentrations of the compound was took out and added to the test buffer, diluted for 200 times to get the final concentration to be tested, 80 μL was took out and added to the test plate.
The highest test concentration was 100 μM, followed by […], 33.33, 11.11, 3.70, 1.23, 0.41, 0.137, 0.045 μM, total 8 concentrations. Each concentration set 3 duplicate wells.
This concentration of DMSO has no effect on the KCNQ2 potassium channel.
Experimental data was analyzed by Excel 2007 and GraphPad Prism 5.0 software, and the ratio of 180 seconds was calculated to calculate the agonism effect. The agonism effect of the compound was calculated by the following formula: […]
Reagent: FluxORTM Detection Kit (Invitrogen, Cat #F0017)
The experimental data in the report must meet the following criteria: Z′ Factor>0.5
2. Results: See Table 1, wherein the smaller the EC50 is, the higher the activity of the corresponding compound is.

[2] = Brain-blood ratio study in mice after single oral administration; type: in vivo; conditions: mouse, brain and plasma, male ICR mice, single oral 10 mg/kg, read-out: Cerebral blood ratio
Protocol: Brain-blood ratio study: 6 healthy male ICR mice (body weight range 18-22 g) were taken and divided into 2 groups and 3 mice/group. After fasting overnight, the compound to be tested (10 mg/kg) was administrated orally respectively. Blood was taken through cardiac puncture at time points 2 and 4 hours, at least 0.5 mL of whole blood was collected to EDTA-K2 anticoagulant tube. Plasma was centrifuged (6000 rpm, 8 minutes, 4° C.) within half an hour and frozen at −20° C. for later use. At the same time, the brain tissue was collected, rinsed with normal saline, then sucked to dryness with absorbent paper, weighed, and frozen at −20° C. for later use.
The cerebral blood ratio is very important to nerve drugs, and it can be seen from Table 3 that the compounds of the present invention have excellent cerebral blood ratio, which will bring better drug efficacy and excellent safety. By comparing the cerebral blood ratios of compound A, compound 1, compound B and compound J, it can be seen that after the tert-butyl of compound A or compound B has been changed into […]

[3] = Pharmacokinetics of mice, single intravenous and oral administration, plasma; type: in vivo; conditions: male ICR mice; for AUC(0-inf) / AUC(0-t) / Cmax / Tmax / half-life: mouse, plasma
Protocol: Study on Pharmacokinetics of Mice
1) Research purposes: In order to obtain the pharmacokinetic characteristics and blood-brain barrier of the tested compound in male ICR mice
Six healthy male ICR mice (body weight range 18-22 g) were taken and divided into 2 groups and 3 mice/group. After fasting overnight (only oral administration group), […], blood was collected by jugular vein puncture at time points 0.083 (IV only), 0.25, 0.5, 1, 2, 4, 6 (PO only), 8 and 24 hours, and at least 0.3 mL of whole blood was collected to EDTA-K2 anticoagulant tube. Plasma was centrifuged (6000 rpm, 8 minutes, 4° C.) within half an hour and frozen at −20° C. for later use.
Experimental results: According to the blood drug concentration data obtained, the non-compartmental model of WinNonlin® 7.0 software (Pharsight, USA) was used to calculate the pharmacokinetic parameters after administration.

[4] = intravenous 1 mg/kg (footnote *)

T1 sequence (O43526 whole entry): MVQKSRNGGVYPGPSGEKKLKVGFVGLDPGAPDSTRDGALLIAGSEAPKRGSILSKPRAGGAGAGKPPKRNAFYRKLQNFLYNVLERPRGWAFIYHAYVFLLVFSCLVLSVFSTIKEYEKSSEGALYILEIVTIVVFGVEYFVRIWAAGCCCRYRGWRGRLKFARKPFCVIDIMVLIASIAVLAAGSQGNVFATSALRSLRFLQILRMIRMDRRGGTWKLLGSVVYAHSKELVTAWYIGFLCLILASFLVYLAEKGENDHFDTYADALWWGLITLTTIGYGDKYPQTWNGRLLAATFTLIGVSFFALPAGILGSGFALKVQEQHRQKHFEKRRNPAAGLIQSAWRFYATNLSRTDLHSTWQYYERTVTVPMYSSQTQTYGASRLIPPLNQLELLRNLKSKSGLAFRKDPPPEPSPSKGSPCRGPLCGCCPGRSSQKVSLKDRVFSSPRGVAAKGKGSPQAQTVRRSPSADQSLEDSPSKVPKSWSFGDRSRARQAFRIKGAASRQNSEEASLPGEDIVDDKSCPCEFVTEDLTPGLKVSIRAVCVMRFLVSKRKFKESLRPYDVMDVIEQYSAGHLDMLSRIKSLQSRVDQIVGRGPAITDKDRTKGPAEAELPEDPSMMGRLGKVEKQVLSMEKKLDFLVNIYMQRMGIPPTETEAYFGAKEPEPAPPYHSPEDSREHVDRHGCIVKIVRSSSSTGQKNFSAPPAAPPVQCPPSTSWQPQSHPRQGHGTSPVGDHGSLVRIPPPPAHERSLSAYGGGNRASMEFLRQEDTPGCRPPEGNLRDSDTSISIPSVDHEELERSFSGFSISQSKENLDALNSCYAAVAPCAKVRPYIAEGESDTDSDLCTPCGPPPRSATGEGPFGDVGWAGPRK

SMILES | EC50 [1] | Maximum agonist rate (%) [1] | other results
C#Cc1ccc(N2CCc3c(cc(C)c(NC(=O)CC(C)(C)C)c3C)C2)cc1 [Compound D] | 450 nM | 29.51% | –
Cc1cc2c(c(C)c1NC(=O)CC1(C)CC1)CCN(c1ccc(F)cc1F)C2 [Compound J] | – | – | Kp at 2 h ([2]; time point 2 h): 4.1; Kp at 4 h ([2]; time point 4 h): 3.2; F ([3]; gavage 10 mg/kg vs intravenous): 19.18%; AUC(0-inf) ([3]; po, gavage 10 mg/kg): 703 ng·h/mL; AUC(0-t) ([3]; po, gavage 10 mg/kg): 693 ng·h/mL; Cmax ([3]; po, gavage 10 mg/kg): 374 ng/mL; Tmax ([3]; po, gavage 10 mg/kg): 15 min; half-life ([3]; po, gavage 10 mg/kg): 109 min; AUC(0-inf) [3, 4]: 366 ng·h/mL; AUC(0-t) [3, 4]: 361 ng·h/mL; Cmax [3, 4]: 942 ng/mL; Tmax [3, 4]: 4.8 min; half-life [3, 4]: 52.8 min
Cc1cc2c(c(C)c1NC(=O)CC1(C)CC1)CCN(c1ccccc1)C2 [Compound V] | 340 nM | 45.76% | –
Cc1ccc(N2CCc3c(cc(C)c(NC(=O)CC(C)(C)C)c3C)C2)cc1 [Compound U] | 330 nM | 52.3% | –
Cc1cc2c(c(C)c1NC(=O)CC1(C)CC1)CCN(c1cccc(F)c1)C2 [Compound Z] | 94 nM | 48.65% | –
Cc1cc2c(c(C)c1NC(=O)CC1(C)CC1)CCN(c1ccc(Cl)cc1)C2 [Compound W] | 180 nM | 33.2% | –

The next lines start with results.

EC50 [1] | Maximum agonist rate (%) [1] | SMILES | other results
210 nM | 36.16% | [2H]C1([2H])c2cc(C)c(NC(=O)CC3(C)CC3)c(C)c2CCN1c1ccc(C(F)(F)F)cc1 [Compound A3] | –
400 nM | 35.92% | Cc1cc2c(c(C)c1NC(=O)CCC1CC1)CCN(c1ccc(F)cc1)C2 [Compound A7] | –
49 nM | 34.41% | Cc1cc2c(c(C)c1NC(=O)CC1CC(F)(F)C1)CCN(c1ccc(F)cc1)C2 [Compound A5] | –
270 nM | 48.11% | Cc1cc2c(c(C)c1NC(=O)CC1(C)CC1)CCN(c1cccc(C(F)(F)F)c1)C2 [Compound A4] | –

— patent US20230077155A1, “TETRAHYDROISOQUINOLINE COMPOUND AS POTASSIUM CHANNEL MODULATOR AND PREPARATION AND APPLICATION THEREOF” (Shanghai Zhimeng Biopharma, Inc., priority 2020, published 2023)
